PubChem BioAssay AID1963439 (Molecular Pharmacology Branch, DTP, NCI, 2024)
Several values for one entry are separate records, joined by “and”; a condition that tells them apart may be missing. Equal entries are not always repeated.

Test system: NCI-H196 complex spheroids with HUVEC/MSC, growth % T/C
Test: Anticancer human tumor NCI-H196 cell line growth inhibition [Asc];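 also: spheroids exposed to compound for 7 days before measurement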;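 as to viability, T/C: 100% = DMSO vehicle control wells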
Details: for viability, T/C: stronger effect = lower value
Outline: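 Complex solid-tumor spheroids incorporating human endothelial and mesenchymal stem cells received single agents or combinations over half-log dilution ranges anchored to clinical Cmax.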

O=C(c1ccc(F)c(F)c1Nc1ccc(I)cc1F)N1CC(O)([C@@H]2CCCCN2)C1 + Cc1c(S(C)(=O)=O)c(-c2cc(F)cc(N3CCN(c4ccc(NS(=O)(=O)c5ccc(NC(CCN6CCC(C(=O)OCCCP(=O)(O)O)CC6)CSc6ccccc6)c(S(=O)(=O)C(F)(F)F)c5)cc4)CC3)c2)c(-c2ccc(Cl)cc2)n1C(C)C
IC50 (curve of first compound, second compound 0.1 µM): > 1 µM | IC50 (curve of first compound, second compound 0.316 µM): > 1 µM | IC50 (curve of first compound, second compound 1 µM): > 1 µM | IC50 (curve of first compound, second compound 3.16 µM): > 1 µM | IC50 (curve of first compound, second compound 10 µM): > 1 µM | viability, T/C (second compound 0.1 µM, first compound 0.00316 µM): 103% | viability, T/C (second compound 0.1 µM, first compound 0.01 µM): 104% | viability, T/C (second compound 0.1 µM, first compound 0.0316 µM): 108% | viability, T/C (second compound 0.1 µM, first compound 0.1 µM): 102% | viability, T/C (second compound 0.1 µM, first compound 0.316 µM): 117% | viability, T/C (second compound 0.1 µM, first compound 1 µM): 125% | viability, T/C (second compound 0.316 µM, first compound 0.00316 µM): 99% | viability, T/C (second compound 0.316 µM, first compound 0.01 µM): 96.1% | viability, T/C (second compound 0.316 µM, first compound 0.0316 µM): 88.6% | viability, T/C (second compound 0.316 µM, first compound 0.1 µM): 97.4% | viability, T/C (second compound 0.316 µM, first compound 0.316 µM): 105% | viability, T/C (second compound 0.316 µM, first compound 1 µM): 117% | viability, T/C (second compound 1 µM, first compound 0.00316 µM): 84.9% | viability, T/C (second compound 1 µM, first compound 0.01 µM): 89.1% | viability, T/C (second compound 1 µM, first compound 0.0316 µM): 93.9% | viability, T/C (second compound 1 µM, first compound 0.1 µM): 106% | viability, T/C (second compound 1 µM, first compound 0.316 µM): 108% | viability, T/C (second compound 1 µM, first compound 1 µM): 117% | viability, T/C (second compound 3.16 µM, first compound 0.00316 µM): 79.8% | viability, T/C (second compound 3.16 µM, first compound 0.01 µM): 87.3% | viability, T/C (second compound 3.16 µM, first compound 0.0316 µM): 87.8% | viability, T/C (second compound 3.16 µM, first compound 0.1 µM): 85.4% | viability, T/C (second compound 3.16 µM, first compound 0.316 µM): 102% | viability, T/C (second compound 3.16 µM, first compound 1 µM): 106% | viability, T/C (second compound 10 µM, first compound 0.00316 µM): 74.5% | viability, T/C (second compound 10 µM, first compound 0.01 µM): 85.8% | viability, T/C (second compound 10 µM, first compound 0.0316 µM): 81.2% | viability, T/C (second compound 10 µM, first compound 0.1 µM): 83% | viability, T/C (second compound 10 µM, first compound 0.316 µM): 90.6% | viability, T/C (second compound 10 µM, first compound 1 µM): 97%

Cc1c(S(C)(=O)=O)c(-c2cc(F)cc(N3CCN(c4ccc(NS(=O)(=O)c5ccc(NC(CCN6CCC(C(=O)OCCCP(=O)(O)O)CC6)CSc6ccccc6)c(S(=O)(=O)C(F)(F)F)c5)cc4)CC3)c2)c(-c2ccc(Cl)cc2)n1C(C)C (stereo not drawn)
viability, T/C (compound 0.1 µM): 94.5% [middle of 14 runs] | viability, T/C (compound 0.316 µM): 92.9% [middle of 14 runs] | viability, T/C (compound 1 µM): 91.4% [middle of 14 runs] | viability, T/C (compound 3.16 µM): 82.2% [middle of 14 runs] | viability, T/C (compound 10 µM): 75.3% [middle of 14 runs] | IC50 (compound alone, run of 09/27/2022): > 10 µM

Cn1ncnc1[C@H]1c2n[nH]c(=O)c3cc(F)cc(c23)N[C@@H]1c1ccc(F)cc1
viability, T/C (compound 0.000316 µM): 97.9% and 107% and 106% | viability, T/C (compound 0.001 µM): 104% and 97.1% and 99.2% | viability, T/C (compound 0.00316 µM): 99.5% and 100% and 104% | viability, T/C (compound 0.01 µM): 104% and 102% and 98% | viability, T/C (compound 0.0316 µM): 100% (2×) and 96.9% | viability, T/C (compound 0.1 µM): 98.8% and 96% and 88.3% | IC50 (curve of compound): > 0.1 µM
